Here are results for 10 molecules from US4423221A, “7-Carboethoxy-morphinan-6-one compounds” (SISA Pharmaceutical Laboratories, Inc., priority 1982, dated 1983).

Test [1] has as its system rats. The test is described as follows: Narcotic antagonist activity, modified rat tail flick test (against ED80 dose of morphine). As to conditions: ip, test drug intraperitoneally, ED80 dose of morphine s.c. 10 min later, retest 20 min after morphine, read-out: AD50 (dose required to inhibit the effect of morphine by 50%). The class given is in vivo, male albino Wistar rats. Here is the method:
(B) Narcotic antagonist activity in rats (modified rat tail flick test).
Evaluation of Narcotic Antagonist Activity
The narcotic antagonist effect of the test compound was determined by a modification of the rat tail flick procedure of Harris and Pierson (J. Pharmacol. Exp. Ther., 143:141 [1964]).
Male albino Wistar rats (100-120 g) were used for this study. A rat's tail is so placed so as to cover a photocell. Heat is applied by a lamp in a reflector with a timer being connected to the lamp and photocell so that the timer goes on when the light is turned on and is turned off when the photocell is uncovered. A rheostat, incorporated into a heating lamp, is used to adjust the intensity of the light falling on the tail of the rat such that the rat's control reaction time is from 2 to 4 seconds. Animals with a control reaction time outside this range are rejected. The rheostat adjustment is made only if a significant proportion (1 out of every 10 rats) of the reaction times are outside the range of 2 to 4 seconds. Groups of 5 rats were used, and 2 control times were determined at 60 and 30 minutes prior to […] injection of the drug.
At least 30 minutes after the last control run the test drug was given intraperitoneally. This was followed 10 minutes later by an ED80 dose of morphine subcutaneously. The animals were retested at 20 minutes after the morphine injection. Control animals were given vehicle and morphine only. The data were calculated as follows: [formula]
The data were plotted on log-probit paper and AD50 values, i.e., the dose required to inhibit the effect of morphine by 50% within 95% confidence limits, were determined by the method of Lichtfield and Wilcoxon.
(In hot-plate and tail-flick tests a longer latency is read as antinociception.)

The subject of test [2] is mice. Nature of the test: Acetic acid mouse writhing test (analgesic effects). As to conditions: subcutaneous, 0.5% acetic acid i.p. 15 min post drug, writhes counted over 20 min; for ED50: Mus musculus, sc, read-out: ED50 (dose required to reduce the number of writhes by 50%). The class given is in vivo, male CD-1 mice. As to the method:
(A) Analgesic effects upon mice (acetic acid writhing test).
Acetic Acid Mouse Writhing Test
Analgesic effects of the test compounds were determined in mice by use of the acetic acid writhing test described by B. A. Whittle, Brit. J. Pharmacol., 22:246 (1964). In this test, at least 3 groups of 5 male CD-1 mice each were given subcutaneous doses of the test drug dissolved in distilled water. In all cases, 0.4 milliliters of a 0.5% V/V acetic acid in distilled water solution was administered intraperitoneally 15 minutes post drug. The number of writhes in a 20 minute interval beginning 5 minutes after the acetic acid injection were determined and compared with the number of writhes in a control group which had received only acetic acid.
Percent inhibition of writhing was calculated as: [formula]
The ED50 dose, i.e., the dose required to reduce the number of writhes by 50%, was determined graphically from a plot of % inhibition as a probit verus log dose. Confidence limits of 95% were calculated on the basis of those results falling in the range 16-84% inhibition. See Lichtfield, J. T. and Wilcoxon, F., J. Pharmacol. Exp. Ther., 96, 99-113 (1949).

On to `CCOC(=O)C1C[C@H]2[C@H]3Cc4ccc(OC)cc4[C@@]2(CCN3CC2CC2)CC1=O` (stereo partly drawn) [TR-5299, 7-carboethoxy-17-cyclopropylmethyl-3-methoxy-morphinan-6-one], for which the ED50 was 13 mg/kg in test [1] and > 10 mg/kg in test [2].

As to `CCOC(=O)C1CC2C3Cc4ccc(OC)cc4C2(CCN3CC2CCC2)CC1=O` (stereo not drawn) [TR-5300, 7-carboethoxy-17-cyclobutylmethyl-3-methoxy-morphinan-6-one], the ED50 in test [1] amounted to 13 mg/kg. For the same molecule, the “ED50 (dose required to reduce the number of writhes by 50%)” value in test [2] is on record as “IA 10.0”.

Take `CCOC(=O)C1C[C@H]2[C@H]3Cc4ccc(O)cc4[C@@]2(CCN3CC2CCC2)CC1=O` (stereo partly drawn) [TR-5307, 7-carboethoxy-17-cyclobutylmethyl-3-hydroxy-morphinan-6-one]: the figures for the ED50 in test [1] and in test [2] were > 10 mg/kg and 1.15 mg/kg, respectively.

For the molecule `CCOC(=O)C1C[C@H]2[C@H]3Cc4ccc(O)cc4[C@@]2(CCN3CC2CC2)CC1=O` (stereo partly drawn) [TR-5308, 7-carboethoxy-17-cyclopropylmethyl-3-hydroxy-morphinan-6-one], the figures for the ED50 in test [1] and in test [2] were 3.12 mg/kg and 4.9 mg/kg, respectively.

Consider `CCOC(=O)C1C[C@H]2[C@H]3Cc4ccc(OC)cc4[C@@]2(CCN3C)CC1=O` (stereo partly drawn) [TR-5318, 7-carboethoxy-3-methoxy-17-methylmorphinan-6-one], for which the ED50 in test [2] was found to be 4.6 mg/kg.

For `CCOC(=O)C1C[C@H]2[C@H]3Cc4ccc(O)cc4[C@@]2(CCN3C)CC1=O` (stereo partly drawn) [TR-5320, 7-carboethoxy-3-hydroxy-17-methylmorphinan-6-one], the ED50 was 3.6 mg/kg in test [1] and 0.72 mg/kg in test [2].

`CCOC(=O)C1C[C@@H]2[C@H]3Cc4ccc(OC)cc4[C@@]2(CCN3C)CC1=O` (stereo partly drawn) [TR-5336, 7-carboethoxy-3-methoxy-17-methyl-14α-morphinan-6-one]: in test [2], the ED50 was > 10 mg/kg.

As for `CCOC(=O)C1C[C@@H]2[C@H]3Cc4ccc(OC)cc4[C@@]2(CCN3CC2CC2)CC1=O` (stereo partly drawn) [TR-5337, 7-carboethoxy-17-cyclopropylmethyl-3-methoxy-14α-morphinan-6-one], the ED50 in test [1] was > 10 mg/kg. Besides, the “ED50 (dose required to reduce the number of writhes by 50%)” value in test [2] is “IA 10.0”.

`CCOC(=O)C1C[C@@H]2[C@H]3Cc4ccc(O)cc4[C@@]2(CCN3C)CC1=O` (stereo partly drawn) [TR-5338, 7-carboethoxy-3-hydroxy-17-methyl-14α-morphinan-6-one]: the results for the ED50 in test [1] and in test [2] were 0.7 mg/kg and 0.6 mg/kg, respectively.

Consider `CCOC(=O)C1C[C@@H]2[C@H]3Cc4ccc(O)cc4[C@@]2(CCN3CC2CC2)CC1=O` (stereo partly drawn) [TR-5339, 7-carboethoxy-17-cyclopropylmethyl-3-hydroxy-14α-morphinan-6-one], for which the ED50 in test [1] worked out at 2.54 mg/kg; in test [2] it was 3.7 mg/kg.
